# Assay results as given in patent US8518968B2, “Hydrazone and diacyl hydrazine compounds and methods of use” (The United States of America, as represented by the …, priority 2009, dated 2013).
# Structures can show the parent of a compound that is named as a salt.
# Tested on: JEKO-1 cells stably transfected with shRNAs to luciferase or NOXA
# Test: Effect of NOXA shRNA on cytotoxicity in JEKO-1 cells (MTT)
# Assay type: cell-based
# Details: JEKO-1 shLuc vs shNoxa, 24 hours
# Protocol: The effect of NOXA on cytotoxicity of CBU-028, EERI, or bortezomib is determined. FIG. 4 presents graphs comparing CBU-028, EERI, and bortezomib with respect to percent cell viability as a function of concentration, measured using JEKO-1 cells stably transfected with shRNAs to luciferase (shLuc, control, ▪) or NOXA (shNoxa, ◯, sequence: [NT]) after treatment with the compound for 24 hrs, with viability determined with MTT as described above and normalized to the untreated control.
row,SMILES,requirement of NOXA for cytotoxicity
1,CC(C)C[C@H](NC(=O)[C@H](Cc1ccccc1)NC(=O)c1cnccn1)B(O)O [bortezomib],Noxa is equally required

# Tested on: JEKO-1 cells
# Test: cells
# Details: Homo sapiens, JeKo-1, 48 h
row,SMILES,IC50
1,"CC1(C)C(N(O)C(=O)Nc2ccc(C(F)(F)F)cc2)N(c2ccc(C(F)(F)F)cc2)C(=O)N1CC(=O)NN (centres unmarked) [CBU-007, 1-(1-(2-hydrazinyl-2-oxoethyl)-5,5-dimethyl-2-oxo-3-(4-(tri-fluoromethyl)phenyl)imi-dazolidin-4-yl)-1-hydroxy-3-(4-(trifluoromethyl)phenyl)urea]",30 µM
2,"O=C(N/N=C/C=C/c1ccc([N+](=O)[O-])o1)c1ccc(C(=O)N/N=C/C=C/c2ccc([N+](=O)[O-])o2)c(O)c1O [CBU-049, (N′1E,N′4E)-2,3-dihydroxy-N′1,N′4-bis((E)-3-(5-nitrofuran-2-yl)allylidene)terephthalo hydrazide]",1.5 µM

# Same assay, conditions: Homo sapiens, JeKo-1, 48 h, JEKO-1 cells, incubated 2 days, MTT, four parameter logistic fit
row,SMILES,IC50
1,"N=C(N)N/N=C/C=C/c1ccc([N+](=O)[O-])o1 [CBU-020, (E)-2-((E)-3-(5-nitrofuran-2-yl)allylidene)hydrazine-carboximidamide hydrochloride]",4 µM
2,CC1(C)C(N(O)C(=S)Nc2ccc(Cl)cc2)N(c2ccc(Cl)cc2)C(=S)N1CC(=O)N/N=C/C=C/c1ccc([N+](=O)[O-])o1 (centres unmarked) [CBU-073],3 µM
3,"O=C(N/N=C/C=C/c1ccc([N+](=O)[O-])o1)c1cc(Br)ccc1O [CBU-041, (E)-5-bromo-2-hydroxy-N′-((E)-3-(5-nitrofuran-2-yl)allylidene)benzohydrazide]",10 µM
4,"O=C(N/N=C/C=C/c1ccc([N+](=O)[O-])cc1)c1cc2ccccc2cc1O [CBU-061, (E)-3-hydroxy-N′-((E)-3-(4-nitrophenyl)allylidene)-2-naphthohydrazide]",5 µM
5,"O=C(N/N=C/C=C/c1ccccc1[N+](=O)[O-])c1cc2ccccc2cc1O [CBU-055, (E)-3-hydroxy-N′-((E)-3-(2-nitrophenyl)allylidene)-2-naphthohydrazide]",6 µM
6,CC1(C)C(N(O)C(=O)Nc2ccc(C(F)(F)F)cc2)N(c2ccc(Cl)cc2)C(=O)N1CC(=O)N/N=C/C=C/c1ccc([N+](=O)[O-])o1 (centres unmarked) [CBU-014],3 µM
7,"CC(C)(C)OC(=O)N/N=C/C=C/c1ccc([N+](=O)[O-])o1 [CBU-018, (E)-tert-butyl 2-((E)-3-(5-nitrofuran-2-yl)allylidene)hydrazine-carboxylate]",18 µM
8,"O=C(N/N=C/C=C/c1ccc([N+](=O)[O-])o1)c1ccc(O)cc1 [CBU-027, (E)-4-hydroxy-N′-((E)-3-(5-nitrofuran-2-yl)allylidene)benzohydrazide]",7.5 µM
9,C[N+](C)(C)CC(=O)N/N=C/C=C/c1ccc([N+](=O)[O-])o1 [CBU-019],3.5 µM
10,"O=C(N/N=C/C=C/c1ccccc1)c1cc2ccccc2cc1O [CBU-051, (E)-3-hydroxy-N′-((E)-3-phenylallylidene)-2-naphthohydrazide]",10 µM
11,"O=C(N/N=C/C=C/c1ccc([N+](=O)[O-])o1)c1ccccc1O [CBU-025, (E)-2-hydroxy-N′-((E)-3-(5-nitrofuran-2-yl)allylidene)benzohydrazide]",6.5 µM
12,CC1(C)C(N(O)C(=O)Nc2ccc(Cl)cc2)N(c2ccc(C(F)(F)F)cc2)C(=O)N1CC(=O)N/N=C/C=C/c1ccc([N+](=O)[O-])o1 (centres unmarked) [CBU-013],3 µM
13,CC1(C)C(N(O)C(=O)Nc2ccc(C(F)(F)F)cc2)N(c2ccc(C(F)(F)F)cc2)C(=O)N1CC(=O)N/N=C/C=C/c1ccc([N+](=O)[O-])o1 (centres unmarked) [CBU-008],2.5 µM
14,"CN(C)c1ccc(/C=C/C=N/NC(=O)c2cc3ccccc3cc2O)cc1 [CBU-054, (E)-N′-((E)-3-(4-(dimethylamino)phenyl)allylidene)-3-hydroxy-2-naphthohydrazide]",15 µM
15,"O=C(CNC(=O)Nc1ccc(Cl)cc1)N/N=C/C=C/c1ccc([N+](=O)[O-])o1 [CBU-022, 1-(4-chlorophenyl)-3-(2-((E)-2-((E)-3-(5-nitrofuran-2-yl)allylidene)hydrazinyl)-2-oxoethyl)urea]",6 µM
16,"O=C(N/N=C/C=C/c1ccc([N+](=O)[O-])o1)c1cnc2cc(C(F)(F)F)ccc2c1O [CBU-039, (E)-4-hydroxy-N′-((E)-3-(5-nitrofuran-2-yl)allylidene)-7-(trifluoromethyl)quinoline-3-carbohydrazide]",15 µM

row,SMILES,IC50
1,"COc1ccc(O)c(C(=O)N/N=C/C=C/c2ccc([N+](=O)[O-])o2)c1 [CBU-046, (E)-2-hydroxy-5-methoxy-N′-((E)-3-(5-nitrofuran-2-yl)allylidene)benzohydrazide]",10 µM
2,"Cc1ccc(O)c(C(=O)N/N=C/C=C/c2ccc([N+](=O)[O-])o2)c1 [CBU-045, (E)-2-hydroxy-5-methyl-N′-((E)-3-(5-nitrofuran-2-yl)allylidene)benzohydrazide]",6 µM
3,"O=C(N/N=C/C=C/c1ccc([N+](=O)[O-])o1)c1cccs1 [CBU-034, (E)-N′-((E)-3-(5-nitrofuran-2-yl)allylidene)thiophene-2-carbohydrazide]",20 µM
4,"O=C(N/N=C/C=C/c1ccc([N+](=O)[O-])o1)c1cnc2c(C(F)(F)F)cccc2c1O [CBU-040, (E)-4-hydroxy-N′((E)-3-(5-nitrofuran-2-yl)allylidene)-8-(trifluoromethyl)quinoline-3-carbohydrazide]",10 µM
5,"O=C(N/N=C/C=C/c1ccc([N+](=O)[O-])o1)c1cccnc1 [CBU-016, (E)-N′-((E)-3-(5-nitrofuran-2-yl)allylidene)nicotinonhydrazide]",7 µM
6,"COc1ccc(C(=O)N/N=C/C=C/c2ccc([N+](=O)[O-])o2)c(O)c1 [CBU-043, (E)-2-hydroxy-4-methoxy-N′-((E)-3-(5-nitrofuran-2-yl)allylidene)benzohydrazide]",30 µM
7,"O=C(N/N=C/C=C/c1ccc([N+](=O)[O-])o1)c1ccccc1 [CBU-015, (E)-N′-((E)-3-(5-nitrofuran-2-yl)allylidene)benzohydrazide]",8 µM
8,"O=C(N/N=C/C=C/c1ccc([N+](=O)[O-])o1)c1nc(O)c2ccccc2c1O [CBU-036, (E)-1,4-dihydroxy-N′-((E)-3-(5-nitrofuran-2-yl)allylidene)isoquinoline-3-carbohydrazide]",9 µM
9,"O=C(/C=C/c1ccc([N+](=O)[O-])o1)NNC(=O)c1cc2ccccc2cc1O [CBU-062, (E)-3-hydroxy-N′-(3-(5-nitrofuran-2-yl)acryloyl)-2-naphthohydrazide]",2.5 µM
10,"Cc1cccc(C(=O)N/N=C/C=C/c2ccc([N+](=O)[O-])o2)c1O [CBU-038, (E)-2-hydroxy-3-methyl-N′-((E)-3-(5-nitrofuran-2-yl)allylidene)benzohydrazide]",9 µM
11,"O=C(N/N=C/C=C/c1ccc([N+](=O)[O-])o1)c1ccncc1 [CBU-033, (E)-N′-((E)-3-(5-nitrofuran-2-yl)allylidene)isonicotino-hydrazide]",6 µM
12,"O=C(N/N=C/C=C/c1ccc([N+](=O)[O-])o1)c1ccc(O)cc1O [CBU-042, (E)-2,4-dihydroxy-N′-((E)-3-(5-nitrofuran-2-yl)allylidene)benzohydrazide]",40 µM
13,CC1(C)C(N(O)C(=O)Nc2ccc(Cl)cc2)N(c2ccc(Cl)cc2)C(=O)N1CC(=O)N/N=C/c1ccc([N+](=O)[O-])o1 (centres unmarked) [CBU-024],7 µM
14,"CCNC(=S)N/N=C/C=C/c1ccc([N+](=O)[O-])o1 [CBU-017, (E)-N-ethyl-2-((E)-3-(5-nitrofuran-2-yl)allylidene)hydrazine-carbothioamide]",15 µM
15,"O=C(N/N=C/C=C/c1ccc([N+](=O)[O-])o1)c1cccc(O)c1 [CBU-021, (E)-3-hydroxy-N′-((E)-3-(5-nitrofuran-2-yl)allylidene)benzohydrazide]",8 µM
16,CC1(C)C(N(O)C(=O)Nc2ccc(Cl)cc2)N(c2ccc(Cl)cc2)C(=O)N1CC(=O)N/N=C/C=C/c1ccco1 (centres unmarked) [CBU-023],15 µM
